Experimental data published in patent US20260242340A1, “COMPOUNDS AND METHODS FOR TREATING PROTEIN AGGREGATION DISEASES” (ACELOT, INC., priority 2023, published 2026).

Legend:
[1] = target: TDP-43 peptide (amino acids 307-319) (Homo sapiens, UniProt Q13148); assay: TDP-43 thioflavin T assay; format: biochemical; settings: ThT RFU at 15 hours; 100% = TDP-43 + DMSO
Method: The effect of compounds on fibril formation by TDP-43 peptide (amino acids 307-319) was screened using a thioflavin T (ThT) fluorescence assay in a 96-well plate format. The monomeric form of TDP-43 307-319 was stored in HFIP at −20° C. in 32 μL vials and then thawed on ice. After thawing a stock aliquot on ice, 16 μL of HFIP and 432 μL 100 mM ammonium acetate was added. This mix was pipetted three times. Three such prepared aliquots were combined to create a master mix. 400 μM of ThT stock was prepared by dissolving 31.8 mg ThT in 10 mL Milli-Q water to make […] stock. The 10 mM ThT stock was then diluted to 400 μM with Milli-Q water and stored at −20° C. until use. 20 μL aliquots of compounds were used as initial starting material. 98 μL of master mix was then added to each well of 96-well plate, and then 2 μL of compounds was added to each well testing a compound. The plate was spun at 4700×rpm to remove bubbles at 4° C., and then the plate measurements were collected. ThT fluorescence was measured through the bottom of the plate using 440- and 480-nm excitation and emission filters for 15 hours at 0.5-hour intervals. Each well was scanned at 5 points with a 1.25 mm distance between points. The relative fluorescence unit (RFU) at 15 hours was used to rank the percent of aggregation for all tested compounds.

[2] = target: T1, TDP-43 cytosolic aggregates (TDP-43-tGFP-U2OS cell line) (Homo sapiens, UniProt Q13148); assay: TDP-43 cytoplasmic aggregation assay; format: cell-based; settings: 100 μM compound; TDP-43-tGFP-U2OS cells; lower = more potent
T1 construct: expressed in transfected cells; host or cells: U2OS (recombinant, IPTG-inducible TDP-43 expression)
Method: Recombinant TDP-43-tGFP-U2OS cell line was thawed (2×10^6 cells per T75) and was maintained in DMEM-F12 supplemented with 10% FBS at 37° C. in a humidified 5% CO2 atmosphere. Cells were plated in 96-well plates with a density of 10,000 cells (+/−2000 cells) per well. Cells were incubated with the test compounds and isopropyl β-D-1-thiogalactopyranoside (IPTG) 1 mM to induce TDP43 expression for 24 hours. The assays were carried out in triplicate. Cells were treated with 125-250 μM of sodium arsenite for 120 min and TDP-43 punctae formation was quantified in both cell cytoplasm and cell nucleus, in living cells. The nuclei were stained using Hoechst (0.5 μg/ml) and the fluorescence was measured using a Cell Insight High-Content Bioimager from Thermo Fisher. To detect the Hoechst, the filters used were 380/10 and 460/10 nm for excitation and emission, respectively, and to detect the TDP-43 punctae, the filters were 488/20 and 520/20 nm, respectively. The images were obtained with an objective of 20×. Cell quantification was performed delimitating the region of interest of the nuclei and after quantification the average of each triplicate was performed. For granule quantification the spot detector application from Cell Software delimitated 2 regions of interest, the nuclei and cytosol. This software quantified the average number of granules per nuclei and the average number of granules per cytosol in each well.

Aβ 1-42 = target: T2, Aβ 1-42 (Homo sapiens, UniProt P05067); assay: Aβ42 thioflavin T assay; format: biochemical; settings: 50 μM compound, 5 μM Aβ 1-42, ThT RFU at 15 hours; 100% = Aβ + DMSO; read-out: Aβ42 % aggregation at 50 μM
T2 construct: The monomeric form of Aβ 1-42 (rPeptide, A1170-025) film; purchased rPeptide A1170-025
Method: The effect of compounds on fibril formation by Aβ 1-42 was screened using a thioflavin T (ThT) fluorescence assay in a 96-well plate format. The monomeric form of Aβ 1-42 (rPeptide, A1170-025) film was diluted with 10 mM NaOH to form a 1 mg/ml stock solution. This stock solution was then further diluted with cell culture grade water (Cytiva, SH30529.01) and 10×PBS (VWR, 97063-660) to a working concentration of 100 μM in 1×PBS on ice. Compounds were initially dissolved in 100% DMSO (MilliporeSigma, D2650) at room temperature to make a 10 mM stock and stored at −20° C. prior to the experiment. On the day of the experiment, the stock solution was diluted with 1×PBS to a concentration of 500 μM, containing 5% DMSO. The reaction mixture, containing 10 μM ThT […], 5 μM Aβ 1-42, and 1×PBS was prepared in 15 ml Falcon centrifuge tubes (Corning, 352070) and kept on ice during preparation. The reaction mixture was then dispensed into multiple wells of a 96-well half-area, low-binding polyethylene non-treated plate (Corning, 3880) with a clear bottom, at 90 μL per well. To each well, 10 μL of 500 μM compound stock was added, with three replicates per compound. To account for the presence of DMSO, 5% DMSO in 1×PBS was used as the vehicle control. The positive control consisted of 10 μM ThT, 5 μM Aβ 1-42, and 0.5% DMSO in 1×PBS, while the negative control consisted of 10 μM ThT and 0.5% DMSO in 1×PBS. The plates were sealed with polyester sealing tape (VWR, 89134-430) to prevent evaporation and then placed in a plate reader (Molecular Devices SpectraMax ID5) at 37° C. without agitation. ThT fluorescence was measured through the bottom of the plate using 440- and 480-nm excitation and emission filters for 15 hours at 0.5-hour intervals. Each well was scanned at 5 points with a 1.25 mm distance between points. The relative fluorescence unit (RFU) at 15 hours was used to rank the percent of aggregation for all tested compounds and controls.

alpha-synuclein = target: T3, alpha-synuclein (Homo sapiens, UniProt P37840); assay: Alpha-synuclein thioflavin T assay; format: biochemical; settings: 250 μM compound on pre-formed aggregates of 50 μM alpha-synuclein, 24 hours; 100% = alpha synuclein + DMSO
T3 construct: purchased Proteos RP-003
Method: Recombinant alpha-synuclein monomeric protein was procured from Proteos (catalog no. RP-003, 10 mg/ml or 700 μM concentration). Prior to aggregation, the protein was centrifuged at 10,000 rpm for 5 minutes to remove any pre-existing aggregates. The stock solution was then diluted to 50 μM concentration in filtered 1×PBS and allowed to aggregate with continuous shaking at 1000 rpm on a thermomixer for 96 hours at 37° C. After 96 hours, the ThT fluorescence was checked for the sample to confirm aggregate formation using ThT, a well-known amyloid marker dye. The ThT active aggregates were then used for high-throughput small molecule inhibitor screening. For screening small molecule disaggregators, 10 mM DMSO stock solutions of small molecules were diluted to 250 μM in the reaction mix containing 20 μM ThT and aggregates formed by 50 μM alpha-synuclein. As a positive/vehicle control, 100% DMSO stock was diluted to 2.5% to match the DMSO in the small molecule conditions. ThT fluorescence assay was performed for 24 hours with 3 replicates per sample in a 384 well plate (Corning low volume black/clear flat bottom) on a microplate reader (Molecular Devices SpectraMax iD5 or BioTek Agilent Synergy Neo2) using excitation wavelength of 440 nm and emission wavelength of 490 nm. The temperature was maintained at 37° C. and the plate was continuously shaken throughout the measurement. All data were plotted and analyzed in GraphPad Prism.

T1 sequence (Q13148 whole entry): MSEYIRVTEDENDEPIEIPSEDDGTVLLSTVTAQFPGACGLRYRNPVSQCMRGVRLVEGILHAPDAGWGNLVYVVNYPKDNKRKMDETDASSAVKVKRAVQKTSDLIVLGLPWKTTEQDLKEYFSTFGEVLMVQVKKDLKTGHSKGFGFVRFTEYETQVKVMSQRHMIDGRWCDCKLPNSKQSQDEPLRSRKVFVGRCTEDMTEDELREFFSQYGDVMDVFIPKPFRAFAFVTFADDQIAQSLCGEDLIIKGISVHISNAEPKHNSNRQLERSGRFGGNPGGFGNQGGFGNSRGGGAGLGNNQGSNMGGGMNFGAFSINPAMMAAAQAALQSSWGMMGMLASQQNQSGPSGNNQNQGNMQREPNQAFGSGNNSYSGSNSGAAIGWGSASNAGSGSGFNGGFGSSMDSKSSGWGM
T2 sequence (P05067 672-713 limits assumed): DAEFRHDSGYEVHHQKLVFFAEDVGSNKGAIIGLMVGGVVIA

Row | SMILES | % aggregation TDP-43 ThT at 50 μM TDP-43 [1] [%] | % remaining TDP-43 cytosolic aggregates after 100 μM compound addition [2] [%] | activity at 50 µM (Aβ 1-42) [%] | % alpha synuclein aggregation as measured on ThT (alpha-synuclein) [%]
1 | CC(=O)Nc1ccc2c(c1)CCN(CCc1ccccc1)C2 [Compound 3, N-(2-Phenethyl-1,2,3,4-tetrahydroisoquinolin-6-yl) acetamide] | 78.9 | >99.9 | > 99.9 | 82.8
2 | CNC(=O)c1ccc2c(c1)CCN(CCc1cccc(Cl)c1)C2 [Compound 4, 2-(3-chlorophenethyl)-N-methyl-1.2.3.4-tetrahydroisoquinoline-6-carboxamide] |  | 59.1 | 74.6 | >99.9
3 | Clc1cccc(CCN2CCc3ccccc3C2)c1 [Compound 5, 2-(3-chlorophenethyl)-1,2,3,4-tetrahydroisoquinoline] | 64.6 | 40.7 |  | 99
4 | CC(=O)Nc1ccc2c(c1)CN(CCc1cccc(Cl)c1)CC2 [Compound 6, N-(2-(3-Chlorophenethyl)-1,2,3,4-tetrahydroisoquinolin-7-yl) acetamide] | 73.1 | 93.7 | 59.7 | >99.9
5 | CC(=O)Nc1ccc2c(c1)CN(CCc1ccc(O)c(Cl)c1)C2 [Compound 12, N-(2-(3-Chloro-4-hydroxyphenethyl)isoindolin-5-yl) acetamide] | 43.5 |  |  | 
6 | CC(=O)Nc1ccc2c(c1)CN(CCc1ccc(O)c(C)c1)C2 [Compound 13, N-(2-(4-Hydroxy-3-methylphenethyl)isoindolin-5-yl) acetamide] | 48.8 |  |  | 
7 | CCc1cc(CCN2Cc3ccc(NC(C)=O)cc3C2)ccc1O [Compound 14, N-(2-(3-Ethyl-4-hydroxyphenethyl)isoindolin-5-yl) acetamide] | 48.6 |  |  | 
8 | CC(=O)N(C)c1ccc2c(c1)CN(CCc1ccc(O)c(Cl)c1)C2.Cl [Compound 15, N-(2-(3-Chloro-4-hydroxyphenethyl)isoindolin-5-yl)-N-methylacetamide hydrochloride] | 47.2 |  |  | 
